Test results as given in PubChem BioAssay AID330 (DTP/NCI, 2004).
“And” between values parts separate entries of the source, which are not always exact repeats. Identical values can stand only once. Inconclusive results and toxic doses are left out. Rule for the calls: active = survival T/C of 150% or more; inactive = T/C below 125% in these data.

System: P388 leukemia ip, CD2F1 mice, survival T/C
Assay: NCI In Vivo Anticancer Drug Screen. Data for tumor model P388 Leukemia (intraperitoneal) in CD2F1 (CDF1) mice
Conditions: endpoint: median survival time, higher = longer survival
Method in brief: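 Mice carrying the transplanted tumor received test compound or vehicle. Survival was recorded in each group, and the value is the treated-group measurement divided by that of the vehicle-treated control group.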

[1] = dose: 12.5 mg/kg/injection, schedule: Q01DX009 (ip), vehicle: saline with Tween-80
[2] = dose: 25.0 mg/kg/injection, schedule: Q01DX009 (ip), vehicle: saline with Tween-80
[3] = dose: 100.0 mg/kg/injection, schedule: Q01DX009 (ip), vehicle: saline with Tween-80
[4] = dose: 50.0 mg/kg/injection, schedule: Q01DX005 (ip), vehicle: saline with Tween-80
[5] = dose: 100.0 mg/kg/injection, schedule: Q01DX005 (ip), vehicle: saline with Tween-80
[6] = dose: 200.0 mg/kg/injection, schedule: Q01DX005 (ip), vehicle: saline with Tween-80

Measured: T/C

O=C1C=C[C@H](O)[C@@]2(CO)O[C@@H]12
inactive: dose: 1.25 mg/kg/injection, schedule: Q04DX002 (ip), vehicle: saline 103 % of control | dose: 2.5 mg/kg/injection, schedule: Q04DX002 (ip), vehicle: saline with Tween-80 114 % of control | dose: 2.5 mg/kg/injection, schedule: Q04DX002 (ip), vehicle: saline 104 % of control

CC(=O)O[C@H]1CC[C@]2(C)C3CC[C@]4(C)C([C@H](C)CCCC(C)C)CCC4[C@]3(C#N)n3c(=O)n(-c4ccccc4)c(=O)n3[C@]2(C#N)C1 (some centres undefined)
inactive: dose: 60.0 mg/kg/injection, schedule: Q01DX005 (ip), vehicle: saline with Tween-80 96 % of control | dose: 120.0 mg/kg/injection, schedule: Q01DX005 (ip), vehicle: saline with Tween-80 93 % of control | dose: 240.0 mg/kg/injection, schedule: Q01DX005 (ip), vehicle: saline with Tween-80 91 % of control

C=C1CC=CC(C)(C)C12CC(Br)C(C)(Cl)CC2O (centres undefined)
inactive: dose: 10.0 mg/kg/injection, schedule: Q01DX009 (ip), vehicle: Klucel (hydroxypropylcellulose) (HPC) 115 % of control | dose: 20.0 mg/kg/injection, schedule: Q01DX009 (ip), vehicle: Klucel (hydroxypropylcellulose) (HPC) 109 % of control | dose: 40.0 mg/kg/injection, schedule: Q01DX009 (ip), vehicle: Klucel (hydroxypropylcellulose) (HPC) 106 % of control

Clc1cccc2sc(Nc3c4ccccc4nc4ccccc34)nc12
inactive: dose: 12.5 mg/kg/injection, schedule: Q04DX002 (ip), vehicle: distilled water + Tween-80 95 % of control | dose: 25.0 mg/kg/injection, schedule: Q04DX002 (ip), vehicle: distilled water + Tween-80 89 % of control | dose: 50.0 mg/kg/injection, schedule: Q04DX002 (ip), vehicle: distilled water + Tween-80 95 % of control | dose: 100.0 mg/kg/injection, schedule: Q04DX002 (ip), vehicle: distilled water + Tween-80 97 % of control | dose: 200.0 mg/kg/injection, schedule: Q04DX002 (ip), vehicle: distilled water + Tween-80 97 % of control | dose: 400.0 mg/kg/injection, schedule: Q04DX002 (ip), vehicle: distilled water + Tween-80 97 % of control

O=S(=O)(Cl)C(F)(F)C(F)(F)C(F)(F)C(F)(F)C(F)(F)C(F)(F)F
inactive: [1] 100 % of control | [2] 104 % of control | dose: 50.0 mg/kg/injection, schedule: Q01DX009 (ip), vehicle: saline with Tween-80 100 % of control and 93 % of control | [3] 112 % of control

Cc1ccc(C(=O)C2(c3ccc(C)cc3)CCCCC2)cc1
inactive: dose: 50.0 mg/kg/injection, schedule: Q04DX002 (ip), vehicle: Klucel (hydroxypropylcellulose) (HPC) 91 % of control | dose: 100.0 mg/kg/injection, schedule: Q04DX002 (ip), vehicle: Klucel (hydroxypropylcellulose) (HPC) 90 % of control | dose: 200.0 mg/kg/injection, schedule: Q04DX002 (ip), vehicle: Klucel (hydroxypropylcellulose) (HPC) 95 % of control | dose: 400.0 mg/kg/injection, schedule: Q04DX002 (ip), vehicle: Klucel (hydroxypropylcellulose) (HPC) 91 % of control

Cc1nn(C)c(=S)[nH]c1=O
inactive: dose: 50.0 mg/kg/injection, schedule: Q01DX005 (ip), vehicle: Klucel (hydroxypropylcellulose) (HPC) 103 % of control | [4] 105 % of control | dose: 100.0 mg/kg/injection, schedule: Q01DX005 (ip), vehicle: Klucel (hydroxypropylcellulose) (HPC) 95 % of control | [5] 106 % of control | dose: 200.0 mg/kg/injection, schedule: Q01DX005 (ip), vehicle: Klucel (hydroxypropylcellulose) (HPC) 110 % of control | [6] 103 % of control

O=C1c2ccccc2C(=O)C1C(=Nc1ccccc1Br)c1ccccc1
inactive: [4] 99 % of control | [5] 103 % of control | [6] 103 % of control

CCCCNC(=S)S
inactive: [3] 109 % of control | dose: 200.0 mg/kg/injection, schedule: Q01DX009 (ip), vehicle: saline with Tween-80 109 % of control | dose: 400.0 mg/kg/injection, schedule: Q01DX009 (ip), vehicle: saline with Tween-80 104 % of control

Cc1ccc2c(c1)c(N=NC(N)=S)c(O)n2C1OC(CO)C(O)C(O)C1O (centres undefined)
inactive: dose: 32.0 mg/kg/injection, schedule: Q01DX009 (ip), vehicle: saline with Tween-80 102 % of control | dose: 64.0 mg/kg/injection, schedule: Q01DX009 (ip), vehicle: saline with Tween-80 95 % of control | dose: 128.0 mg/kg/injection, schedule: Q01DX009 (ip), vehicle: saline with Tween-80 98 % of control

CC(=N)c1ccc(C)cc1
inactive: dose: 6.25 mg/kg/injection, schedule: Q01DX009 (ip), vehicle: saline with Tween-80 90 % of control | dose: 6.25 mg/kg/injection, schedule: Q04DX003 (ip), vehicle: saline with Tween-80 100 % of control | [1] 90 % of control | dose: 12.5 mg/kg/injection, schedule: Q04DX003 (ip), vehicle: saline with Tween-80 95 % of control | [2] 104 % of control | dose: 25.0 mg/kg/injection, schedule: Q04DX003 (ip), vehicle: saline with Tween-80 100 % of control
